Laboratory results taken from ChEMBL document CHEMBL3259685, “Successful application of serum shift prediction models to the design of dual targeting inhibitors of bacterial gyrase B and topoisomerase IV with improved in vivo efficacy” (Bioorg Med Chem Lett, 2014).
Converted amounts (≈) assume the structure as drawn. The source made the active and inactive calls. The rule behind the calls is not given here.

Key:
[1] = system: Staphylococcus aureus; assay: Antimicrobial activity against Staphylococcus aureus ATCC 29213; assay type: functional
[2] = system: Staphylococcus aureus; assay: Antimicrobial activity against Staphylococcus aureus ATCC 29213 in presence of 50% human serum; assay type: functional
[3] = Clearance in rat at 2.8 to 9.5 mg/kg, iv; assay type: ADME, organism-based; set-up: dose 2.8-9.5 mg/kg, route intravenous; conditions: in vivo
[4] = system: Streptococcus pneumoniae; assay: Antimicrobial activity against Streptococcus pneumoniae infected in rat lung infection model assessed as log reduction of bacterial density at 38.5 mg/kg, iv; assay type: functional
[5] = system: Streptococcus pneumoniae; assay: Antimicrobial activity against Streptococcus pneumoniae; assay type: functional
[6] = system: Streptococcus pneumoniae; assay: Antimicrobial activity against Streptococcus pneumoniae in presence of 50% human serum; assay type: functional
[7] = Half life in rat at 2.8 to 9.5 mg/kg, iv; assay type: ADME, organism-based; set-up: dose 2.8-9.5 mg/kg, route intravenous; conditions: in vivo
[8] = Volume of distribution at steady state in rat at 2.8 to 9.5 mg/kg, iv; assay type: ADME, organism-based; set-up: dose 2.8-9.5 mg/kg, route intravenous; conditions: in vivo, read-out: Vdss
[9] = system: Rattus norvegicus; assay: Dose normalized AUC in rat at 2.8 to 9.5 mg/kg, iv; assay type: ADME, organism-based; set-up: dose 2.8-9.5 mg/kg, route intravenous; conditions: in vivo
[10] = system: Staphylococcus aureus; assay: Antimicrobial activity against Staphylococcus aureus at 25 mg/kg, iv
[11] = system: Staphylococcus aureus; assay: Antimicrobial activity against Staphylococcus aureus ATCC 29213 infected in Sprague-Dawley rat cyclophosphamide-induced neutropenic sepsis model assessed as host survival at 25 mg/kg, iv administered 1 hr after bacterial infection measured up to 120 hrs; conditions: ATCC 29213, iv
[12] = system: Staphylococcus aureus; assay: Antimicrobial activity against Staphylococcus aureus in rat thigh assessed as log reduction of CFU at 30 mg/kg, iv after 8 hrs; assay type: functional
[13] = system: Staphylococcus aureus; assay: Antimicrobial activity against Staphylococcus aureus in rat thigh assessed as log reduction of CFU at 3 mg/kg, iv after 8 hrs; assay type: functional
[14] = system: Streptococcus pneumoniae; assay: Antimicrobial activity against Streptococcus pneumoniae infected in rat lung infection model assessed as log reduction of bacterial density at 30 mg/kg, po; assay type: functional
[15] = system: Streptococcus pneumoniae; assay: Antimicrobial activity against Streptococcus pneumoniae infected in rat lung infection model assessed as log reduction of bacterial density at 3 mg/kg, po; assay type: functional
[16] = system: Staphylococcus aureus; assay: Antimicrobial activity against Staphylococcus aureus in rat thigh assessed as log reduction of CFU at 50 mg/kg, iv after 6 hrs; assay type: functional

## CCNC(=O)Nc1nc2cc(-c3cccnc3)cc(-c3ccccn3)c2[nH]1
[1]
  MIC: 0.047 µg/mL (≈ 0.131 µM)
[2]
  MIC: 2 µg/mL
[3]
  clearance: 12.5 mL/min/kg
[4]
  FC: 3
[5]
  MIC: 0.004 µg/mL (≈ 0.0112 µM)
[6]
  fold change (FC): 43
[7]
  half-life: 126 min
[8]
  Vd: 1.1 L/kg
[9]
  AUC/dose: 1.6 µg·h/mL
[10]
  Activity: Active
[11]
  survival at 25 mg/kg: 20%

## CCNC(=O)Nc1nc2cc(-c3ccc(C(N)=O)nc3)cc(-c3ncccn3)c2[nH]1
[1]
  MIC: 0.064 µg/mL (≈ 0.159 µM)
[2]
  MIC: 0.25 µg/mL

## CCNC(=O)Nc1nc2cc(-c3cccnc3)cc(-n3cccn3)c2[nH]1
[1]
  MIC: 0.125 µg/mL (≈ 0.36 µM)
[2]
  MIC: 4 µg/mL

## CCNC(=O)Nc1nc2cc(-c3ccc(CN(C)C)nc3)cc(-c3ncccn3)c2[nH]1
[1]
  MIC: 0.5 µg/mL (≈ 1.2 µM)
[2]
  MIC: 0.125 µg/mL

## CC(=O)NC[C@H]1CN(c2ccc(N3CCOCC3)c(F)c2)C(=O)O1 [LINEZOLID]
[1]
  MIC: 1.56 µg/mL (≈ 4.62 µM)
[12]
  FC: 1.4
[13]
  Activity: inactive
[3]
  clearance: 14.5 mL/min/kg
[14]
  FC: 4.5
[15]
  FC: 0.8
[5]
  MIC: 0.4 µg/mL (≈ 1.19 µM)
[6]
  fold change (FC): 1
[7]
  half-life: 42 min
[8]
  Vd: 1 L/kg
[9]
  AUC/dose: 1.1 µg·h/mL
[11]
  survival at 25 mg/kg: 30%

## CCNC(=O)Nc1nc2cc(-c3cnc(CN4CCOCC4)nc3)cc(-c3ncccc3F)c2[nH]1
[1]
  MIC: 0.125 µg/mL (≈ 0.262 µM)
[2]
  MIC: 0.125 µg/mL

## CCNC(=O)Nc1nc2cc(-c3cnc4ccccc4c3)cc(-c3ncccn3)c2[nH]1
[1]
  MIC: 0.032 µg/mL (≈ 0.0782 µM)
[2]
  MIC: 2 µg/mL

## CCNC(=O)Nc1nc2cc(-c3ccc(N)nc3)cc(-c3ncccn3)c2[nH]1
[1]
  MIC: 0.125 µg/mL (≈ 0.334 µM)
[2]
  MIC: 0.25 µg/mL

## CCNC(=O)Nc1nc2cc(-c3ccc[n+]([O-])c3)cc(-c3ncccc3F)c2[nH]1
[1]
  MIC: 0.5 µg/mL (≈ 1.27 µM)
[2]
  MIC: 0.5 µg/mL

## CCNC(=O)Nc1nc2cc(-c3cccnc3)cc(-c3ncccc3F)c2[nH]1
[1]
  MIC: 0.031 µg/mL (≈ 0.0824 µM)
[2]
  MIC: 0.625 µg/mL
[16]
  FC: 1.5
[3]
  clearance: 14 mL/min/kg
[5]
  MIC: 0.004 µg/mL (≈ 0.0106 µM)
[6]
  fold change (FC): 20
[7]
  half-life: 42 min
[8]
  Vd: 1.6 L/kg
[9]
  AUC/dose: 1.1 µg·h/mL

## CCNC(=O)Nc1nc2cc(-c3cnc(C(C)(C)O)nc3)cc(-c3ncccc3F)c2[nH]1
[1]
  MIC: 0.032 µg/mL (≈ 0.0735 µM)
[2]
  MIC: 0.25 µg/mL
[12]
  FC: 2.1
[13]
  FC: 1.7
[3]
  clearance: 23 mL/min/kg
[14]
  FC: 5.8
[15]
  FC: 3.7
[5]
  MIC: 0.004 µg/mL (≈ 0.00919 µM)
[6]
  fold change (FC): 8
[7]
  half-life: 72 min
[8]
  Vd: 2.1 L/kg
[9]
  AUC/dose: 0.8 µg·h/mL
